One assay concerns Pythium ultimum. As to the kind of experiment: Amended agar assay. The format is cell-based. More on the design: key to % control Pythium ultimum (% reduction in colony growth compared to the control plate): D: no control detected at this concentration; C: up to 50% control; B: from 50 to 99% control; A: a control of greater than 99%, i.e. no detectable colony growth. The settings on record: potato dextrose agar amended with compound at 2 ppm, 18° C., 2 to 7 days; for inhibition of growth at 2 ppm: Globisporangium ultimum, read-out: % control Pythium ultimum (% reduction in colony growth compared to the control plate). The protocol:
Amended Agar Assay Testing was carried out on potato dextrose agar (PDA) amended with each compound at a test concentration of 2 ppm. Amended agar was poured into three replicate 9 cm petri dishes. Each replicate dish was inoculated in the centre with a 5 mm agar plug taken from the leading edge of a culture aged between 2 and 7 days old; the age of the culture was dependent on the growth rate of the pathogen being tested. The test pathogen was Pythium ultimum. Plates were incubated at 18° C. and the diameter of each colony measured before growth on the fastest growing plate reached the plate edge. This varied between 2 and 7 days depending on the growth rate of test pathogens. The % reduction in colony growth compared to the control plate was calculated. The results are provided in Table 1, in which D represents no control detected at this concentration; C represents up to 50% control; B from 50 to 99% control; and A represents a control of greater than 99%, i.e. no detectable colony growth.

In a further assay the test system is Phytophthora cactorum. As to the kind of experiment: 96 well plate test. The format is cell-based. Also noted: key to EC50 Phytophthora cactorum: G: no control detected at 2 ppm; F: an EC50 of ≥2 ppm; an EC50 of less than 2 ppm. The note with it: agar amended to 2, 0.2, 0.02 and 0.002 ppm, 18° C., assessed after 2 to 3 days; for EC50: Phytophthora cactorum. The protocol: Compounds were screened in 96 well plates with 10 compounds per plate. Each compound was screened using agar amended to 2, 0.2, 0.02 and 0.002 ppm, with proline at 50 and 10 ppm and 0.2% DMSO used as controls. Each test concentration and standard was replicated twice on a plate. Compounds were screened against Phytophthora cactorum. The agar used in the test is a 1% potato dextrose agar. 1000 spores/mL agar were added to the appropriate agar.
A ×10 stock solution in 2% DMSO was produced for each dose i.e. 20, 2, 0.2 and 0.02 ppm, and 10 μl of this added to the appropriate wells on the plate. An equivalent amount of 2% DMSO and proline stock at 500 and 100 ppm were added for the controls. To each well 90 μl of the appropriate agar spore suspension was added to give the required final well concentrations. Plates were incubated at room temperature (18° C.) and assessed after 2 to 3 days. The amount of pathogen growth in each well was compared to the DMSO controls and an EC50 concentration was calculated. The results are provided in Table 1 in which G represents no control detected at 2 ppm, F represents an EC50 of ≥2 ppm, and E represents an EC50 of less than 2 ppm.

In general, EC50 refers to the midpoint of the concentration-response curve. Regarding `Cn1nnnc1-n1c(OCc2cccc(NC(=O)COc3ccccc3)n2)nc2c(Br)cccc21` [Compound 36], the inhibition of growth at 2 ppm in the assay with Pythium ultimum was > 99%. The concentration for a half-maximal effect (EC50) in the assay with Phytophthora cactorum was < 2 µg/mL.
On the same counts, the results for `Cn1nnnc1-n1c(OCc2cccc(NC(=O)C3CCCC3)n2)nc2c(Br)cccc21` [Compound 37] are > 99% and < 2 µg/mL.
Turning to `CC(C)COC(=O)Nc1cccc(COc2nc3c(Br)cccc3n2-c2nnnn2C)n1` [Compound 38], in the assay with Pythium ultimum, the inhibition of growth at 2 ppm was > 99%. The EC50 with Phytophthora cactorum was < 2 µg/mL.
The corresponding values for `CCCOC(=O)Nc1cccc(COc2nc3c(Br)cccc3n2-c2nnnn2C)n1` [Compound 39] are > 99% and < 2 µg/mL.
On the same counts, the results for `Cn1nnnc1-n1c(OCc2cccc(NC(=O)OC3CCCC3)n2)nc2c(Br)cccc21` [Compound 40] are > 99% and < 2 µg/mL.
The corresponding values for `CC(C)CC(=O)Nc1cccc(COc2nc3c(Br)cccc3n2-c2nnnn2C)n1` [Compound 41] are > 99% and < 2 µg/mL.
As for `CCCCC(=O)Nc1cccc(COc2nc3c(Br)cccc3n2-c2nnnn2C)n1` [Compound 42], the inhibition of growth at 2 ppm in the assay on Pythium ultimum is > 99%. Also, the EC50 with Phytophthora cactorum is < 2 µg/mL.
Take `CCCCC(=O)Nc1nc(COc2nc3c(Cl)cccc3n2-c2nnnn2C)cs1` [Compound 43]: in the assay with Pythium ultimum, the “% control Pythium ultimum (% reduction in colony growth compared to the control plate)” value is “D”. For the same molecule, in the assay on Phytophthora cactorum, the “EC50 Phytophthora cactorum” value is “G”.
`CC(C)CCC(=O)Nc1nc(COc2nc3c(Cl)cccc3n2-c2nnnn2C)cs1` [Compound 44]: the inhibition of growth at 2 ppm with Pythium ultimum is < 50%. For the same molecule, the EC50 in the assay with Phytophthora cactorum is ≥ 2 µg/mL.
On the same counts, the results for `Cn1nnnc1-n1c(OCc2cccc(NC(=O)OC(C)(C)C)n2)nc2c(-c3ccccc3)cccc21` [Compound 45, tert-Buty (6-(((1-(1-methyl-1H-tetrazol-5-yl)-4-phenyl-1H-benzo[d]imidazol-2-yl)oxy)methyl)pyridin-2-yl)carbamate] are > 99% and < 2 µg/mL.
As for `CC(C)COC(=O)Nc1cccc(COc2nc3c(-c4ccccc4)cccc3n2-c2nnnn2C)n1` [Compound 46], in the assay on Pythium ultimum, the inhibition of growth at 2 ppm was > 99%. Moreover, the EC50 in the assay with Phytophthora cactorum was < 2 µg/mL.
The corresponding values for `CC(C)COC(=O)Nc1cccc(COc2nc3c(C4CC4)cccc3n2-c2nnnn2C)n1` [Compound 47] are > 99% and < 2 µg/mL.
